Eight molecules from ChEMBL document CHEMBL2016457, “Discovery of potent and orally bioavailable 17β-hydroxysteroid dehydrogenase type 3 inhibitors” (Bioorg Med Chem, 2012) can be followed below.

For assay [1], the target named is T1, 17-beta-hydroxysteroid dehydrogenase type 2 (Homo sapiens) (UniProt P37059).
T1 sequence (whole entry): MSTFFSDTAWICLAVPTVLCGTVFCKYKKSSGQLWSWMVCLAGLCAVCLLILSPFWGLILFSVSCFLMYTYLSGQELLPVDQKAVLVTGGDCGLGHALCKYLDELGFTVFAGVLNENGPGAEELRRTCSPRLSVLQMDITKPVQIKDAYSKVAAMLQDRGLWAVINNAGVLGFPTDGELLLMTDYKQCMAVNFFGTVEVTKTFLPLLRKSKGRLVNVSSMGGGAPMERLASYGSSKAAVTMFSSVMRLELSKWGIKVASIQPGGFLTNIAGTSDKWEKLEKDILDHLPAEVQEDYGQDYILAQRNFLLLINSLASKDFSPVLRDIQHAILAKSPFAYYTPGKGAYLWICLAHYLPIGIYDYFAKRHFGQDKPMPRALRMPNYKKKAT
As to the kind of experiment: Inhibition of human recombinant 17-beta-HSD2 expressed in human HeLa cells using estradiol as substrate preincubated for 30 mins prior substrate addition measured after 120 mins by spectrophotometry. The format is cell-based.

The target in assay [2] is T2, 17-beta-hydroxysteroid dehydrogenase type 3 (Homo sapiens, UniProt P37058).
T2 sequence (P37058 whole entry): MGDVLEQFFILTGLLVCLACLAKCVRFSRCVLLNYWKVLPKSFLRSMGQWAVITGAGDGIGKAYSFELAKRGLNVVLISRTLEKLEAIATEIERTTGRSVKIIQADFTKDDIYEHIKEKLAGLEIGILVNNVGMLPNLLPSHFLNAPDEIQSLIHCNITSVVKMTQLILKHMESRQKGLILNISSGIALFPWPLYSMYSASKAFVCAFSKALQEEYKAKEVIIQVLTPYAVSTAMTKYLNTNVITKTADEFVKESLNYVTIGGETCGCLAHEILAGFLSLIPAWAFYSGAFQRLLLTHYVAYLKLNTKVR
Description: Inhibition of human recombinant 17-beta-HSD3 expressed in human HeLa cells using androstenedione as substrate preincubated for 30 mins prior substrate addition measured after 120 mins by spectrophotometry

Assay [3] deals with T3, Estrogen receptor (Homo sapiens) (UniProt P03372).
T3 sequence (whole entry): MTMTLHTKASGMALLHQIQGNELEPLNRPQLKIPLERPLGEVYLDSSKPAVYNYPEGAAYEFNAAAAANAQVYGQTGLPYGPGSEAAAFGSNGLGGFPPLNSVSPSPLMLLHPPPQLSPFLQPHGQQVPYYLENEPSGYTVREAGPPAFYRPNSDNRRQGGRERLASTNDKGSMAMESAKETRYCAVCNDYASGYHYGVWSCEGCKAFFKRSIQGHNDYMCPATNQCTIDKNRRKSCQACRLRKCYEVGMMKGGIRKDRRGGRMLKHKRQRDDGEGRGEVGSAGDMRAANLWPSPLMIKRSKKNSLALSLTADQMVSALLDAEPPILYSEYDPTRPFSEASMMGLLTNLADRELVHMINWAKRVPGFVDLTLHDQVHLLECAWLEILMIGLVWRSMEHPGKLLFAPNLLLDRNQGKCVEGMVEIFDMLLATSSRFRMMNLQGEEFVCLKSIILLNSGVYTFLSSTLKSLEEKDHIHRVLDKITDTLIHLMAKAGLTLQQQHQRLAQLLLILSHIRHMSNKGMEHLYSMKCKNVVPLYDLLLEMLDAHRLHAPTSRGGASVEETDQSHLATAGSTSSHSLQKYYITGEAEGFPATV
The assay can be described thus: Antagonist activity at human ERalpha receptor expressed in human HeLa cells assessed as inhibition of DHT-induced response after 40 hrs by luciferase/beta-galactosidase-based reporter gene assay. It counts as functional, cell-based. On the technique in general: A reporter such as luciferase makes a cellular process visible.

The target in assay [4] is T4, Glucocorticoid receptor (Homo sapiens) (UniProt P04150).
T4 sequence (whole entry): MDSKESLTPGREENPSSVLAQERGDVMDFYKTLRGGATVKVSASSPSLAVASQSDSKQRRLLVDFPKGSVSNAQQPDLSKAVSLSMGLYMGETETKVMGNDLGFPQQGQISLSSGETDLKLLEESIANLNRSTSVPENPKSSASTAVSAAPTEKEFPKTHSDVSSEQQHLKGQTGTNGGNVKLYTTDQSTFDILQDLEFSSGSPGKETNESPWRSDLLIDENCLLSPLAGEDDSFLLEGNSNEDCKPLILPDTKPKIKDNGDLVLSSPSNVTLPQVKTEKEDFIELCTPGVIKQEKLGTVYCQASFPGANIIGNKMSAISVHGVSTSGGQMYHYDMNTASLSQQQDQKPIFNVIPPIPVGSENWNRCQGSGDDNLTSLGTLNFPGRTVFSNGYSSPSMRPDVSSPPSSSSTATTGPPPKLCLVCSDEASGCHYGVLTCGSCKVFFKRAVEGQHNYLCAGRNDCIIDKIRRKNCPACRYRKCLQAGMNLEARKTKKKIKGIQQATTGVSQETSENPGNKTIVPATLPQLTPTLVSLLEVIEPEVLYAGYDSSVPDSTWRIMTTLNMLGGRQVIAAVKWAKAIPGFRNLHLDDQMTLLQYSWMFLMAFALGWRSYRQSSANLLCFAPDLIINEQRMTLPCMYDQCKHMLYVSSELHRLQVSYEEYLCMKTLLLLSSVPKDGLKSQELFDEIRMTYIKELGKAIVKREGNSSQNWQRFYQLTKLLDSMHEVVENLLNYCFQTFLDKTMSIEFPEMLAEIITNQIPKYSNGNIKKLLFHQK
The assay can be described thus: Antagonist activity at human GR receptor expressed in human HeLa cells assessed as inhibition of DHT-induced response after 40 hrs by luciferase/beta-galactosidase-based reporter gene assay. The format is functional, cell-based.

Assay [5] deals with T5, Androgen receptor (Homo sapiens) (UniProt P10275).
T5 sequence (whole entry): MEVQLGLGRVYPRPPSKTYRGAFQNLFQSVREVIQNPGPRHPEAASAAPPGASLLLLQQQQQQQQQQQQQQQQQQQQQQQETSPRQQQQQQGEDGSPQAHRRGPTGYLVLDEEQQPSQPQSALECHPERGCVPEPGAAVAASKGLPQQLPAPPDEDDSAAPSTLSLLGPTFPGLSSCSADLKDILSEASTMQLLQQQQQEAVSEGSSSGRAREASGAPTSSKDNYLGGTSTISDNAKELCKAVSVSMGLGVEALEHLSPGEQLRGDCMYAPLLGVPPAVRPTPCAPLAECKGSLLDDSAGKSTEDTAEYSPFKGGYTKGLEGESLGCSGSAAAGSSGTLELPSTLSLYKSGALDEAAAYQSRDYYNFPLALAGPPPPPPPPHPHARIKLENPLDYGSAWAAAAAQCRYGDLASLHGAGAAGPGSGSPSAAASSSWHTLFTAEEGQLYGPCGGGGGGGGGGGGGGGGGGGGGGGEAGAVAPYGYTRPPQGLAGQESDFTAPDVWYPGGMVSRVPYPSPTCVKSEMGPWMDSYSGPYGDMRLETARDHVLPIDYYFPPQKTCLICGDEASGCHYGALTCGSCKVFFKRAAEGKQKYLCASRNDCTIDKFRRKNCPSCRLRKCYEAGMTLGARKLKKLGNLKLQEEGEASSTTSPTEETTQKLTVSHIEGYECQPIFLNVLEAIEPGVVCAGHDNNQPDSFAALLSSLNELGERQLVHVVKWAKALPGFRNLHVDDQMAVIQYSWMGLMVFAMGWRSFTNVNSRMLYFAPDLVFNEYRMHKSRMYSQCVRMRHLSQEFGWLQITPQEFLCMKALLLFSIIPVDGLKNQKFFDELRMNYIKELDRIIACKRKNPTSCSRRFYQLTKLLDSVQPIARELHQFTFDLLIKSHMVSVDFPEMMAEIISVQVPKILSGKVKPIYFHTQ
As to the kind of experiment: Agonist activity at human androgen receptor expressed in human HeLa cells assessed as DHT-induced response after 40 hrs by luciferase/beta-galactosidase-based reporter gene assay. It counts as functional, cell-based.

Assay [6] addresses T3, Estrogen receptor (Homo sapiens). As to the kind of experiment: Agonist activity at human Estrogen receptor ERalpha expressed in human HeLa cells assessed as DHT-induced response after 40 hrs by luciferase/beta-galactosidase-based reporter gene assay. It counts as functional, cell-based.
Assay [7] has as its target T4, Glucocorticoid receptor (Homo sapiens). The assay can be described thus: Agonist activity at human Glucocorticoid receptor expressed in human HeLa cells assessed as DHT-induced response after 40 hrs by luciferase/beta-galactosidase-based reporter gene assay. The format is functional, cell-based.
In assay [8] the target is T6, 17-beta-hydroxysteroid dehydrogenase type 1 (Homo sapiens) (UniProt P14061).
T6 sequence (whole entry): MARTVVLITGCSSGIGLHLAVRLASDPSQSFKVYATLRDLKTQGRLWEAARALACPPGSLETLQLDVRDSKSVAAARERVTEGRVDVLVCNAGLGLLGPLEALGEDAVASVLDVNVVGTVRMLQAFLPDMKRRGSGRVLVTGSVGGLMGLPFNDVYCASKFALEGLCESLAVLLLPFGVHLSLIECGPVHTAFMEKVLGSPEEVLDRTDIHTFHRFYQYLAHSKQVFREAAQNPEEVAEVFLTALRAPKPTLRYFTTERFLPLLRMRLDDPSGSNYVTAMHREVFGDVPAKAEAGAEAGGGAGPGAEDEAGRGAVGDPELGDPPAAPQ
As to the kind of experiment: Inhibition of human recombinant 17-beta-HSD1 expressed in human HeLa cells using estrone as substrate preincubated for 30 mins prior substrate addition measured after 120 mins by spectrophotometry. The format is cell-based.

For assay [9], the target named is T5, Androgen receptor (Homo sapiens). As to the kind of experiment: Antagonist activity at human androgen receptor expressed in human HeLa cells assessed as inhibition of DHT-induced response after 40 hrs by luciferase/beta-galactosidase-based reporter gene assay. It counts as functional, cell-based.

The source made the active and inactive calls. No rule for the calls is given here.

The term IC50 denotes the concentration that inhibits the measured activity by half. In the case of `Cc1ccc(N2C(=O)/C(=C/c3ccc(O)c(Br)c3)OC2=S)cc1`, the inhibition result in [1] and in [8] was “inactive” throughout. This molecule gave an IC50 in assay [2] of 2 nM. Besides, the result in [3], in assay [4], in assay [5], in assay [6], in [7] and in [9] was inactive.

For the molecule `O=C1/C(=C/c2ccc(O)c(Br)c2)SC(=S)N1C1CCOCC1`, the inhibition result in [1] and in assay [8] was “inactive” throughout. The molecule also registered an IC50 in [2] of 75 nM. In addition, the result in assay [3], in assay [4], in assay [5], in [6], in assay [7] and in assay [9] was inactive.

On to `COc1ccc(N2C(=O)O/C(=C\c3ccc(O)c(Br)c3)C2=O)cn1`, for which the inhibition result in assay [1] and in assay [8] was “inactive” each time. In assay [2], this molecule had an IC50 of 4 nM. Besides, the outcome in assay [3], in assay [4], in assay [5], in assay [6], in [7] and in [9] was inactive.

Consider `CS(=O)(=O)c1ccc(N2C(=O)O/C(=C\c3ccc(O)c(Br)c3)C2=O)cc1`, for which the inhibition entry in assay [1] and in assay [8] was “inactive” throughout. Further, half-maximal inhibition in assay [2] (IC50) was put at 900 nM. Also, the result in assay [3], in [4], in assay [5], in [6], in assay [7] and in assay [9] was inactive.

For the molecule `COc1ccc(N2C(=O)/C(=C/c3ccc(O)c(Br)n3)OC2=S)cc1`, the inhibition result in assay [1] and in assay [8] was “inactive” each time. This molecule also gave an IC50 in assay [2] of 42 nM. Further, the outcome in [3], in assay [4], in assay [5], in assay [6], in assay [7] and in assay [9] was inactive.

For `N#Cc1ccc(N2C(=O)/C(=C/c3ccc(O)c(Br)c3)OC2=S)cc1`, the inhibition result in assay [1] and in assay [8] was “inactive” in each case. The molecule further gave an IC50 in assay [2] of 19 nM. For the same molecule, the outcome in assay [3], in [4], in [5], in [6], in assay [7] and in assay [9] was inactive.

With `COc1ccc(N2C(=O)/C(=C(/C)c3ccc(O)c(Br)c3)SC2=S)cc1`, the inhibition entry in [1] and in assay [8] was “inactive” in each case. The midpoint of inhibition in assay [2], the IC50, lay at 90 nM. Besides, the result in assay [3], in assay [4], in assay [5], in assay [6], in assay [7] and in [9] was inactive.

For `O=C1/C(=C/c2ccc(O)c(Br)c2)OC(=S)N1c1ccc(F)cc1`, the inhibition result in assay [1] and in assay [8] was “inactive” each time. The molecule further displayed an IC50 in assay [2] of 2 nM. For the same molecule, the outcome in [3], in assay [4], in assay [5], in assay [6], in assay [7] and in assay [9] was inactive.
